Test results from patent US10961202B2, “Bis-benzimidazole compounds and methods of using the same” (THE SCRIPPS RESEARCH INSTITUTE, priority 2017, dated 2021).

Tested on: r(CUG)12-MBNL1 complex
Experiment: Inhibition of the r(CUG)12-MBNL1 complex measured by TR-FRET
Format: biochemical
Conditions: Table L; 80 nM RNA, 60 nM MBNL1-His6

| SMILES | IC50 [µM] |
| --- | --- |
| N#Cc1cccc(-c2nc3cc(-c4ccc5[nH]c(-c6cccc(C#N)c6)nc5c4)ccc3[nH]2)c1 [Compound 120] | > 200 |
| Cn1c(-c2ccc(N)cc2)nc2cc(-c3ccc4nc(-c5ccc(N)cc5)n(C)c4c3)ccc21 [Compound 121, 1,3′-dimethyl-2,2′-bis(4-aminophenyl)-1H,3′H-5,5′-bibenzimidazole] | > 200 |
| Cn1c(-c2ccc(N)cc2)nc2cc(-c3ccc4c(c3)nc(-c3ccc(N)cc3)n4C)ccc21 [Compound 122, 1,1′-dimethyl-2,2′-bis(4-aminophenyl)-1H,1′H-5,5′-bibenzimidazole] | 24 |
| NC(=O)Cc1ccc(-c2nc3cc(-c4ccc5[nH]c(-c6ccc(CC(N)=O)cc6)nc5c4)ccc3[nH]2)cc1 [Compound 124, 2,2′-(1H,1′H-[5,5′-bibenzo[d]imidazole]-2,2′-diylbis(4,1-phenylene))diacetamide] | 170 |
| CC(C)(C)OC(=O)N1CCN(CCNC(=O)c2ccc3nc(-c4ccc(-c5nc6ccc(C(=O)NCCN7CCCCC7)cc6[nH]5)cc4)[nH]c3c2)CC1 [Compound 125] | 25.6 |
| c1cc(-c2nc3cc(-c4ccc5[nH]c(-c6ccc(CN7CCCC7)cc6)nc5c4)ccc3[nH]2)ccc1CN1CCCC1 [Compound 127, 2,2′-bis(4-(pyrrolidin-1-ylmethyl)phenyl)-1H,1′H-5,5′-bibenzo[d]imidazole] | 27.8 |
| N=C(N)Nc1cccc(-c2nc3cc(-c4ccc5nc(-c6cccc(N)c6)[nH]c5c4)ccc3[nH]2)c1 [Compound 166] | 46 |
| N=C(N)Nc1ccc(-c2nc3cc(-c4ccc5[nH]c(-c6ccc(N)cc6)nc5c4)ccc3[nH]2)cc1 [Compound 167] | 54.4 |

Same assay, conditions: Table M; 80 nM RNA, 60 nM MBNL1-His6

| SMILES | IC50 [µM] |
| --- | --- |
| NCC(=O)NCC(=O)NCc1cn(CCN2CCN(CCNC(=O)c3ccc4nc(-c5ccc(-c6nc7ccc(C(=O)NCCN8CCCCC8)cc7[nH]6)cc5)[nH]c4c3)CC2)nn1 [Compound 178, N-(2-(4-(2-(4-((2-(2-aminoacetamido)acetamido)methyl)-1H-1,2,3-triazol-1-yl)ethyl)piperazin-1-yl)ethyl)-2-(4-(6-((2-(piperidin-1-yl)ethyl)carbamoyl)-1H-benzo[d]imidazol-2-yl)phenyl)-1H-benzo[d]imidazole-6-carboxamide] | 7.9 |
| CN(C)CCOCCOc1ccc2nc(-c3ccc(-c4nc5ccc(OCCOCCN(C)C)cc5[nH]4)cc3)[nH]c2c1 [Compound 179, 2,2′-((((1,4-phenylenebis(1H-benzo[d]imidazole-2,6-diyl))bis(oxy))bis(ethane-2,1-diyl))bis(oxy))bis(N,N-dimethylethan-1-amine)] | 189 |
| CN(C)CC(C)(C)COc1ccc2nc(-c3ccc(-c4nc5ccc(OCC(C)(C)CN(C)C)cc5[nH]4)cc3)[nH]c2c1 [Compound 180] | 78.9 |
| CN1CC[C@@H](Oc2ccc3nc(-c4ccc(-c5nc6ccc(O[C@@H]7CCN(C)C7)cc6[nH]5)cc4)[nH]c3c2)C1 [Compound 181] | 54.4 |
| CN1CC[C@@H](Oc2ccc3nc(-c4ccc(-c5nc6ccc(O)cc6[nH]5)cc4)[nH]c3c2)C1 [Compound 182] | 93.6 |
| CN1C(C)(C)CC(Oc2ccc3nc(-c4ccc(-c5nc6ccc(OC7CC(C)(C)N(C)C(C)(C)C7)cc6[nH]5)cc4)[nH]c3c2)CC1(C)C [Compound 183, 1,4-bis(6-((1,2,2,6,6-pentamethylpiperidin-4-yl)oxy)-1H-benzo[d]imidazol-2-yl)benzene] | 114 |
| CN(C)CC(CN(C)C)Oc1ccc2nc(-c3ccc(-c4nc5ccc(OC(CN(C)C)CN(C)C)cc5[nH]4)cc3)[nH]c2c1 [Compound 184] | > 200 |
| c1cc2nc(-c3ccc(-c4nc5ccc(OCCN6CCOCC6)cc5[nH]4)cc3)[nH]c2cc1OCCN1CCOCC1 [Compound 186] | > 200 |
| CCN(CC)CCCOc1ccc2nc(-c3ccc(-c4nc5ccc(OCCCN(CC)CC)cc5[nH]4)cc3)[nH]c2c1 [Compound 187] | 58.9 |
| CCN(CC)CCCOc1ccc2nc(-c3ccc(-c4nc5ccc(O)cc5[nH]4)cc3)[nH]c2c1 [Compound 188] | 46.9 |
